For the test, the system named is L1210 leukemia ip in BDF1 mice, survival T/C. The experiment in a line: NCI In Vivo Anticancer Drug Screen. Data for tumor model L1210 Leukemia (intraperitoneal) in B6D2F1 (BDF1) mice. As to conditions: endpoint: mean survival time, higher = longer survival. The method in brief:
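Ratio derived from survival: compound-dosed mice over vehicle-dosed mice, all bearing a transplantable tumor.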

[1] abbreviates: dose: 100.0 mg/kg/injection, schedule: Q01DX001 (ip), vehicle: saline with Tween-80.
[2] abbreviates: dose: 100.0 mg/kg/injection, schedule: Q01DX001 (ip), vehicle: carboxymethylcellulose (CMC).
Setting [3] is: dose: 100.0 mg/kg/injection, schedule: Q01DX009 (ip), vehicle: Klucel (hydroxypropylcellulose) (HPC).
[4] abbreviates: dose: 200.0 mg/kg/injection, schedule: Q01DX009 (ip), vehicle: Klucel (hydroxypropylcellulose) (HPC).
The mark [5] stands for this setting: dose: 100.0 mg/kg/injection, schedule: Q01DX009 (ip), vehicle: saline with Tween-80.
[6] abbreviates: dose: 100.0 mg/kg/injection, schedule: Q04DX003 (ip), vehicle: Klucel (hydroxypropylcellulose) (HPC).
Where [7] appears, read: dose: 200.0 mg/kg/injection, schedule: Q01DX009 (ip), vehicle: saline with Tween-80.
Where [8] appears, read: dose: 200.0 mg/kg/injection, schedule: Q04DX003 (ip), vehicle: Klucel (hydroxypropylcellulose) (HPC).
[9] abbreviates: dose: 400.0 mg/kg/injection, schedule: Q01DX009 (ip), vehicle: saline with Tween-80.
The mark [10] stands for this setting: dose: 400.0 mg/kg/injection, schedule: Q04DX003 (ip), vehicle: Klucel (hydroxypropylcellulose) (HPC).
[11] abbreviates: dose: 400.0 mg/kg/injection, schedule: Q01DX009 (ip), vehicle: Klucel (hydroxypropylcellulose) (HPC).

Where “and” joins values, the source holds several entries; their conditions need not be identical. Identical values can stand only once. Toxic doses and inconclusive results are not listed.

Take `O=C1C2(c3ccccc3)CCC1(c1ccccc1)C(c1ccccc1)=C2c1ccccc1`: the T/C under setting [1] was 93 % of control.
Consider `CC(Br)CNC(=O)c1ccc([N+](=O)[O-])cc1` (stereo not given), for which the T/C is 107 % of control (dose: 75.0 mg/kg/injection, schedule: Q01DX009 (ip), vehicle: Klucel (hydroxypropylcellulose) (HPC)); 97 % of control (dose: 150.0 mg/kg/injection, schedule: Q01DX009 (ip), vehicle: Klucel (hydroxypropylcellulose) (HPC)); 101 % of control (dose: 300.0 mg/kg/injection, schedule: Q01DX009 (ip), vehicle: Klucel (hydroxypropylcellulose) (HPC)).
`CC(=O)NC(C)C1(O)CCCCC1` (stereo not given): the T/C was 101 % of control (dose: 100.0 mg/kg/injection, schedule: Q01DX009 (ip), vehicle: saline); 96 % of control (dose: 200.0 mg/kg/injection, schedule: Q01DX009 (ip), vehicle: saline); 98 % of control (dose: 400.0 mg/kg/injection, schedule: Q01DX009 (ip), vehicle: saline).
With `Cc1[nH]c2ccccc2c1/C=C/c1c[nH]c2ccccc12`, the T/C runs as follows: (dose: 50.0 mg/kg/injection, schedule: Q01DX001 (ip), vehicle: carboxymethylcellulose (CMC)) 93 % of control; under setting [2], 91 % of control; (dose: 200.0 mg/kg/injection, schedule: Q01DX001 (ip), vehicle: carboxymethylcellulose (CMC)) 98 % of control; (dose: 400.0 mg/kg/injection, schedule: Q01DX001 (ip), vehicle: carboxymethylcellulose (CMC)) 91 % of control.
As to `Cc1ccc(NC(=O)N(CCCl)N=O)cc1C`, the T/C reads like this: (dose: 0.5 mg/kg/injection, schedule: Q01DX009 (ip), vehicle: carboxymethylcellulose (CMC)) 114 % of control; (dose: 1.0 mg/kg/injection, schedule: Q01DX009 (ip), vehicle: carboxymethylcellulose (CMC)) 119 % of control; (dose: 1.5 mg/kg/injection, schedule: Q01DX001 (ip), vehicle: carboxymethylcellulose (CMC)) 114 % of control; (dose: 2.0 mg/kg/injection, schedule: Q01DX009 (ip), vehicle: carboxymethylcellulose (CMC)) 103 % of control; (dose: 4.0 mg/kg/injection, schedule: Q01DX009 (ip), vehicle: carboxymethylcellulose (CMC)) 158 % of control; (dose: 6.0 mg/kg/injection, schedule: Q01DX001 (ip), vehicle: carboxymethylcellulose (CMC)) 119 % of control. Further, the T/C (dose: 8.8 mg/kg/injection, schedule: Q01DX009 (ip), vehicle: carboxymethylcellulose (CMC)) is 249 % of control; the T/C (dose: 13.3 mg/kg/injection, schedule: Q01DX009 (ip), vehicle: carboxymethylcellulose (CMC)) is 159 % of control; the T/C (dose: 19.0 mg/kg/injection, schedule: Q01DX001 (ip), vehicle: carboxymethylcellulose (CMC)) was 173 % of control; the T/C (dose: 29.0 mg/kg/injection, schedule: Q01DX001 (ip), vehicle: carboxymethylcellulose (CMC)) was 214 % of control; the T/C (dose: 30.0 mg/kg/injection, schedule: Q01DX009 (ip), vehicle: carboxymethylcellulose (CMC)) is 103 % of control; the T/C (dose: 44.0 mg/kg/injection, schedule: Q01DX001 (ip), vehicle: carboxymethylcellulose (CMC)) was 210 % of control and 298 % of control. In addition, the T/C is 257 % of control (dose: 66.0 mg/kg/injection, schedule: Q01DX001 (ip), vehicle: carboxymethylcellulose (CMC)); 218 % of control and 263 % of control under setting [2].
As for `Cc1cccc(C(=O)O)n1.[Cu+2]`, the T/C by setting is: (dose: 5.0 mg/kg/injection, schedule: Q01DX001 (ip), vehicle: saline) 103 % of control; (dose: 10.0 mg/kg/injection, schedule: Q01DX001 (ip), vehicle: saline) 113 % of control.
Consider `Cc1cc2nc(NC(=O)C3CC3)sc2cc1C`, for which the T/C by setting is: under setting [3], 91 % of control; under setting [4], 91 % of control.
On to `COC(=O)CCCCCC(O)C1CCC2OC(=O)CC21C` (stereo not given), for which the T/C was 95 % of control under setting [5]; 94 % of control under setting [6]; 95 % of control under setting [7]; 100 % of control under setting [8]; 91 % of control under setting [9]; 93 % of control under setting [10].
Take `CC(C)Cc1ccccn1`: the T/C runs as follows: (dose: 25.0 mg/kg/injection, schedule: Q01DX009 (ip), vehicle: Klucel (hydroxypropylcellulose) (HPC)) 96 % of control; (dose: 50.0 mg/kg/injection, schedule: Q01DX009 (ip), vehicle: Klucel (hydroxypropylcellulose) (HPC)) 98 % of control; under setting [3], 91 % of control.
For `O=C1C(I)=CC(=C(c2cc(I)c(O)c(I)c2)c2ccccc2C(=O)O)C=C1I`, the T/C reads like this: under setting [3], 94 % of control; under setting [6], 98 % of control; under setting [4], 89 % of control; under setting [8], 98 % of control; under setting [11], 98 % of control; under setting [10], 98 % of control.
Take `Brc1c(-c2ccccc2)cc(-c2ccccc2)cc1-c1ccccc1`: the T/C is 93 % of control under setting [3]; 91 % of control under setting [6]; 93 % of control under setting [4]; 93 % of control under setting [8]; 96 % of control under setting [11]; 91 % of control under setting [10].
In the case of `O=C(O)CC(SC(c1ccccc1)(c1ccccc1)c1ccccc1)C(=O)O` (stereo not given), the T/C runs as follows: under setting [3], 93 % of control; under setting [6], 98 % of control; under setting [4], 90 % of control; under setting [8], 102 % of control; under setting [10], 96 % of control.
On to `COc1ccc(OC)c(NC(=O)Nc2ccc(N(C)C)cc2)c1`, for which the T/C was 93 % of control under setting [6], 97 % of control under setting [8] and 95 % of control under setting [10].
In the case of `O=C(O)c1ccc(CBr)cc1CBr`, the T/C is 103 % of control (dose: 6.25 mg/kg/injection, schedule: Q01DX009 (ip), vehicle: saline with Tween-80); 93 % of control (dose: 6.25 mg/kg/injection, schedule: Q04DX003 (ip), vehicle: saline with Tween-80); 101 % of control (dose: 12.5 mg/kg/injection, schedule: Q01DX009 (ip), vehicle: saline with Tween-80); 96 % of control (dose: 12.5 mg/kg/injection, schedule: Q04DX003 (ip), vehicle: saline with Tween-80); 94 % of control (dose: 25.0 mg/kg/injection, schedule: Q01DX009 (ip), vehicle: saline with Tween-80); 102 % of control (dose: 25.0 mg/kg/injection, schedule: Q04DX003 (ip), vehicle: saline with Tween-80).
Consider `COC(=O)CCN(c1cccc(Cl)c1)S(=O)(=O)c1ccc(C)cc1`, for which the T/C runs as follows: (dose: 100.0 mg/kg/injection, schedule: Q01DX001 (ip), vehicle: saline) 98 % of control; (dose: 200.0 mg/kg/injection, schedule: Q01DX001 (ip), vehicle: saline) 92 % of control; (dose: 400.0 mg/kg/injection, schedule: Q01DX001 (ip), vehicle: saline) 98 % of control.
For the compound `Cc1ccc(S(=O)(=O)NCCN(C2CCCCC2)S(=O)(=O)c2ccc(C)cc2)cc1`, the T/C (dose: 15.0 mg/kg/injection, schedule: Q01DX001 (ip), vehicle: carboxymethylcellulose (CMC)) is 96 % of control and the T/C (dose: 30.0 mg/kg/injection, schedule: Q01DX001 (ip), vehicle: carboxymethylcellulose (CMC)) is 96 % of control.
On to `C/C(CCC(=O)O)=N\NC(=O)Cc1cccc2ccccc12`, for which the T/C is, setting by setting: under setting [6], 94 % of control; under setting [8], 102 % of control; under setting [10], 102 % of control.
As to `NS(=O)(=O)c1ccc(NC(=S)NC(=O)c2cccc([N+](=O)[O-])c2)cc1`, the T/C runs as follows: (dose: 50.0 mg/kg/injection, schedule: Q04DX003 (ip), vehicle: saline with Tween-80) 97 % of control; under setting [1], 96 % of control; under setting [5], 96 % of control and 101 % of control; (dose: 100.0 mg/kg/injection, schedule: Q04DX002 (ip), vehicle: saline with Tween-80) 90 % of control; (dose: 100.0 mg/kg/injection, schedule: Q04DX003 (ip), vehicle: saline with Tween-80) 97 % of control and 105 % of control; (dose: 200.0 mg/kg/injection, schedule: Q01DX001 (ip), vehicle: saline with Tween-80) 101 % of control. The T/C is 103 % of control and 89 % of control under setting [7]; 104 % of control (dose: 200.0 mg/kg/injection, schedule: Q04DX002 (ip), vehicle: saline with Tween-80); 94 % of control (dose: 200.0 mg/kg/injection, schedule: Q04DX003 (ip), vehicle: saline with Tween-80); 86 % of control (dose: 400.0 mg/kg/injection, schedule: Q01DX001 (ip), vehicle: saline with Tween-80); 96 % of control and 89 % of control under setting [9]; 87 % of control (dose: 400.0 mg/kg/injection, schedule: Q04DX002 (ip), vehicle: saline with Tween-80). The T/C (dose: 400.0 mg/kg/injection, schedule: Q04DX003 (ip), vehicle: saline with Tween-80) is 89 % of control.
